Reference: patent US20250302834A1, “N-ALKYL-2-SUBSTITUTED ATP ANALOGUES FOR USE AS ANTIBACTERIAL AGENT” (UNIVERSITÉ DE LIÈGE, priority 2022, published 2025)

Legend:
[1] = general statement, no test described; cited from earlier work
[2] = test system: methicillin-resistant JE2 (USA300) Staphylococcus aureus strain; assay: Haemolytic activity of culture supernatant on human red blood cells, JE2 strain; format: cell-based; settings: JE2 (USA300) grown with 1 μg/mL up to stationary phase; supernatant on red blood cells 30 minutes
Procedure: (§1) Staphylococcus aureus strains included previously characterized infective endocarditis (IE) clinical isolate (Liesenborghs L, Meyers S, Lox M, Criel M, Claes J, Peetermans M, Trenson S, Vande Velde G, Vanden Berghe P, Baatsen P, et al. Staphylococcus aureus endocarditis: distinct mechanisms of bacterial adhesion to damaged and inflamed heart valves. Eur Heart J 2019; 40:3248-3259) or JE2 (USA300 MRSA). Bacteria were grown in Tryptic soy broth (TSB, Sigma) under agitation (200 rpm) at 37° C. Prior to all experiments, a single colony from TSA plates was used to inoculate 4 mL of TSB in 15-mL polystyrene tubes and bacteria were grown overnight. Liquid cultures were then diluted 100-fold in 20 mL of fresh TSB and aliquoted in new tubes. For tetrasodium cangrelor treatment, different concentrations of the drug were added to the corresponding tubes. Tetrasodium cangrelor was dissolved in the culture medium, i.e. Tryptic soy broth which comprises proteins and nutrients for growing bacteria, more particularly: casein, soya peptone, sodium chloride, dipotassium phosphate, dextrose, water. […]
(§2) Freshly drawn citrate anticoagulated blood from healthy volunteers was centrifugated for 15 minutes at 1,000×g. […] Haemolytic activity was determined in supernatants by measuring the absorbance at 570 nm in a spectrophotometer. […]

[3] = test system: Staphylococcus aureus IE clinical isolate; assay: Staphyloxanthin production, IE strain; format: cell-based; settings: IE strain grown with 0.5 μg/mL up to exponential phase (FIG. 3)
Procedure: as §1
(§3) Bacteria pellets from overnight culture were resuspended in 400 μL methanol and incubated for 30 minutes at 37° C. under gentle agitation on a table shaker. […] Pigment intensity in supernatants was analyzed by measuring the absorbance at 470 nm. […]

JE2 S. aureus [4] = assay: Staphyloxanthin production, JE2 strain; format: cell-based, Staphylococcus aureus; settings: 1.0 μg/ml (FIG. 4)
Procedure: as §1, §3

JE2 S. aureus [5] = assay: Bacterial adhesion to Von Willebrand factor under flow; format: cell-based, Staphylococcus aureus; settings: JE2 grown with 1 μg/ml; shear rate 1000 s^-1 for 10 minutes (FIG. 5)
Procedure: Staphylococcus aureus JE2 (USA300 MRSA) in exponential growth phase, non-treated or treated with cangrelor at 1 μg/ml were stained with 30 μg/ml 5(6)-Carboxyfluorescein N-hydroxysuccinimide ester (Sigma-Aldrich) in phosphate-buffered saline (PBS) for 30 minutes at room temperature on a shaker. After incubation, bacteria were centrifuged for 5 minutes at 14,000×g and the supernatant was removed. Next, a washing step was performed by resuspending the bacteria in PBS and removing PBS after centrifugation (5 minutes at 14,000×g). The bacterial pellet was then resuspended in 100 μl of 6% bovine serum albumin (BSA). The stained bacteria were kept on ice until further use in the Von Willebrand factor (VWF) adhesion assay and fibrinogen (Fg) adhesion assay. […]
After perfusion, the coverslip was removed from the system and washed with PBS, followed by a fixation step with 4% paraformaldehyde (PFA, miliporefore, Merck) for 10 minutes. […] Confocal microscopy was performed at a 40× magnification and fluorescence intensity was measured with QuPath software (Bankhead, P. et al. QuPath: Open source software for digital pathology image analysis. Sci. Rep. 7, 1-7 (2017)). A quantification of bacteria adhesion to VWF was determined by determining the percentage of positive pixels, corresponding to the fluorescent signal and bacterial adhesion.

JE2 S. aureus [6] = assay: Bacterial adhesion to fibrinogen; format: cell-based, Staphylococcus aureus; settings: JE2 grown with 1 μg/ml (FIG. 6)
Procedure: Staphylococcus aureus JE2 (USA300 MRSA) in exponential growth phase, non-treated or treated with cangrelor at 1 μg/ml were stained with 30 μg/ml 5(6)-Carboxyfluorescein N-hydroxysuccinimide ester (Sigma-Aldrich) in phosphate-buffered saline (PBS) for 30 minutes at room temperature on a shaker. After incubation, bacteria were centrifuged for 5 minutes at 14,000×g and the supernatant was removed. Next, a washing step was performed by resuspending the bacteria in PBS and removing PBS after centrifugation (5 minutes at 14,000×g). The bacterial pellet was then resuspended in 100 μl of 6% bovine serum albumin (BSA). The stained bacteria were kept on ice until further use in the Von Willebrand factor (VWF) adhesion assay and fibrinogen (Fg) adhesion assay.
96-well plates (cellstar, greiner) were coated with human plasma fibrinogen (Fg, Merck) for 24 hours at room temperature, followed by a washing step with PBS. Next, a blocking step with 2% BSA for 1 hour was done followed by a wash step with PBS. Labelled bacteria in exponential phase were then diluted in TSB medium to obtain 10^9 CFU/ml of labelled bacteria. […] Bacterial adhesion was then quantified using a spectrophotometer (multi-mode microplate reader FilterMax F5, molecular devices) Ex.:485 nm and em.:535 nm, a surface scan of the wells was performed. […]

JE2 S. aureus [7] = assay: Bacterial growth curve; format: cell-based, Staphylococcus aureus; settings: 1 μg/ml, 20 μg/ml and 40 μg/ml, 7 hours, OD 595 nm (FIG. 7)
Procedure: (§4) A bacterial growth curve and metabolic activity profile was obtained of exponential phase JE2 bacteria following treatment with different concentrations of cangrelor 1 μg/ml, 20 μg/ml and 40 μg/ml. The bacterial growth curve was obtained via a kinetic reading using a spectrophotometer, reading every 10 minutes for 7 hours at an optical density of 595 nm with continuous shaking. The metabolic activity profile was obtained using a Calscreener™ (Symcel), which measures the metabolic response over time (15 hours) in presence of the different concentrations of cangrelor. […] While cangrelor cannot inhibit the bacterial growth of JE2, it can inhibit virulence factors production by this strain upon treatment using a clinically relevant dose of 1 μg/ml.

JE2 S. aureus [8] = assay: Bacterial metabolic activity (Calscreener); format: cell-based, Staphylococcus aureus; settings: 1 μg/ml, 20 μg/ml and 40 μg/ml, 15 hours (FIG. 8)
Procedure: as §4

[9] = test system: Staphylococcus aureus IE clinical isolate; assay: Haemolytic activity of culture supernatant on human red blood cells, IE strain; format: cell-based; settings: IE strain grown with 0.5 μg/mL up to exponential phase; supernatant on red blood cells 30 minutes
Procedure: as §1, §2

[10] = intravenous bolus (30 μg/kg) followed by 4-μg/kg/min infusion; cited from earlier work

CCCSc1nc(N[C@@H]2C[C@H]2c2ccc(F)c(F)c2)c2nnn([C@@H]3C[C@H](OCCO)[C@@H](O)[C@H]3O)c2n1 [Ticagrelor]
solubility in an aqueous environment or medium [1]: generally not soluble

CSCCNc1nc(SCCC(F)(F)F)nc2c1ncn2[C@@H]1O[C@H](COP(=O)(O)OP(=O)(O)C(Cl)(Cl)P(=O)(O)O)[C@@H](O)[C@H]1O [cangrelor]
loss of supernatant haemolytic activity as compared to vehicle control (set to 100%) [2]: complete loss
loss of bacteria staphyloxanthin production as compared to vehicle control (set to 100%) [3]: 90%
loss of bacteria staphyloxanthin production as compared to vehicle control (set to 100%) (JE2 S. aureus [4]): 90%
bacterial adhesion to Von Willebrand factor under flow as compared to vehicle control (JE2 S. aureus [5]): reduction
bacterial adhesion to fibrinogen as compared to vehicle control (JE2 S. aureus [6]): reduction
bacterial growth (AUC of growth curve) as compared to vehicle control (JE2 S. aureus [7]): could not affect
bacterial metabolic activity as compared to vehicle control (JE2 S. aureus [8]): could not affect

CSCCNc1nc(SCCC(F)(F)F)nc2c1ncn2[C@@H]1O[C@H](COP(=O)(O)OP(=O)(O)C(Cl)(Cl)P(=O)(O)O)C(O)C1O (stereo partly shown) [tetrasodium cangrelor]
loss of supernatant haemolytic activity as compared to vehicle control (set to 100%) [9]: 90%
steady state concentration of the drug reached in patient [10]: 0.5 µg/mL
